For 85 compounds, IC50 results are on record in patent publication US7989464B2, “mGluR1 antagonists as therapeutic agents” (Schering Corporation, priority 2004, dated 2011).

The term IC50 denotes the point on the concentration scale where inhibition reaches its midpoint.

In the first assay the target is T1, hmGluR1 receptor (Homo sapiens, UniProt Q13255).
T1 construct: expressed in transfected cells
T1 sequence (Q13255 19-1194): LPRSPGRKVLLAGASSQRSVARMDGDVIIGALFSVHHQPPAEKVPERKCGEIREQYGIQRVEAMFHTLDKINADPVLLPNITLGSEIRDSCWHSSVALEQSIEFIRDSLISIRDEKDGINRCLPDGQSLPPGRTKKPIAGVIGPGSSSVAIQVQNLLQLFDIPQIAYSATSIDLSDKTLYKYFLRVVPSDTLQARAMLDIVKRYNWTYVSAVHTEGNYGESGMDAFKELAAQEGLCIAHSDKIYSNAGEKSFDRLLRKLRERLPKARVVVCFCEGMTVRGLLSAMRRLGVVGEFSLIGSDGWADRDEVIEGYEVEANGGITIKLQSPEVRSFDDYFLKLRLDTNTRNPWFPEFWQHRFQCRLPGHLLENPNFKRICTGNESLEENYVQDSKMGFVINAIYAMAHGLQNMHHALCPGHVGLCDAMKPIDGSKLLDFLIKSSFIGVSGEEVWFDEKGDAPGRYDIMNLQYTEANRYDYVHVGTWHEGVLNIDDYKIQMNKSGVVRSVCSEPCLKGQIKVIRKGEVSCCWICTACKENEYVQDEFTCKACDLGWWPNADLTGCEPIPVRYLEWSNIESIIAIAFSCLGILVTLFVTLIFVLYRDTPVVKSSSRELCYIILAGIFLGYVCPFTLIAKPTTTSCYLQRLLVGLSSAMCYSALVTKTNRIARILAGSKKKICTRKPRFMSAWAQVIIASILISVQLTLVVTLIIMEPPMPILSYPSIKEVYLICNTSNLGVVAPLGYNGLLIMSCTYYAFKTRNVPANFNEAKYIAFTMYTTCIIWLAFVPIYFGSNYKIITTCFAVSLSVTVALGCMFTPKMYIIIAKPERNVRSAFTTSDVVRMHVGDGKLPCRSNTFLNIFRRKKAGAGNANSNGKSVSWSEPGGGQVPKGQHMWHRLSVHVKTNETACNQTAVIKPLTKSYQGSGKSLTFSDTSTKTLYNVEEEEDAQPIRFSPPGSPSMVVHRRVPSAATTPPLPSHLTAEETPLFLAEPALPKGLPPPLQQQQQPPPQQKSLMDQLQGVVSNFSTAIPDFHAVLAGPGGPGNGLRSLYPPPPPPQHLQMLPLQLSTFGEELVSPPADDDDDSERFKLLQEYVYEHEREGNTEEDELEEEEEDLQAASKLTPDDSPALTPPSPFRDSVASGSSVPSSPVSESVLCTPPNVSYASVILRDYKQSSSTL
Briefly: IC50 determination: intracellular calcium mobilization (FLIPR) upon Quisqualate stimulation in CHO cells stably expressing hmGluR1. Format: cell-based. The note with it: against Quisqualate 1 μM (EC80), FLIPR calcium mobilization, read-out: IC50 Class. Summed up:
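CHO cells stably expressing hmGluR1 were kept overnight in DMEM high glucose with GPT and 1 mM pyruvate, then loaded 2 h with Calcium 3 dye.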
As to `CSCCNc1ncnc2sc3c(=O)n(-c4ccc(Cl)cc4)cnc3c12` [95FS], the IC50 is less than 50 nM.
In the case of `CC(=O)NN(C)c1ccnc2sc3c(=O)n(-c4ccc(Cl)cc4)cnc3c12` [73H], the IC50 fell in the range of 150 to 1000 nM.
For `CCNc1ccnc2sc3c(=O)n(-c4ccc(OC)c(F)c4)cnc3c12` [28FZ], the half-maximal inhibitory concentration (IC50) is less than 50 nM.
The same measure, in the same setting: next, `CCN(C)c1ccnc2sc3c(=O)n(-c4ccc(OC)cc4F)cnc3c12` [28BW]: less than 50 nM; `C=C(C)CNc1ncnc2sc3c(=O)n(-c4ccncc4)cnc3c12` [95FJ]: 150 to 1000 nM; `CN(c1ncnc2sc3c(=O)n(-c4ccc(Cl)cc4)cnc3c12)C1CC1` [95DU]: less than 50 nM.
As for `CCCNc1ncnc2sc3c(=O)n(-c4ccc(C)cc4)cnc3c12` [95FG], the IC50 was less than 50 nM.
With `COc1ccc(-n2cnc3c(sc4ncnc(Nc5cccc(C#N)c5)c43)c2=O)cc1` [190I], the IC50 lay within 150 to 1000 nM.
Still for that read-out and setting: next, `C=CCN(C)c1ccnc2sc3c(=O)n(-c4ccc(OC)cc4)cnc3c12` [28EA]: less than 50 nM; `Cc1ccc(-n2cnc3c(sc4cnnc(NCCCO)c43)c2=O)cc1` [167F]: more than 1000 nM.
On the same count and under the same terms, next, `CN(N)c1ccnc2sc3c(=O)n(-c4ccc(Cl)cc4)cnc3c12` [28DM]: more than 1000 nM.
For the compound `O=c1c2sc3ncnc(Nc4ccccc4)c3c2ncn1-c1ccc(Cl)cc1` [95FX], the half-inhibitory concentration (IC50) fell in the range of 150 to 1000 nM.
Take `CNc1c(Cl)cnc2sc3c(=O)n(-c4ccc(OC)cc4)cnc3c12` [compound 198]: the half-maximal inhibitory concentration (IC50) is less than 50 nM.
Still for that read-out and setting: next, `COCCCNc1ccnc2sc3c(=O)n(-c4ccc(O)cc4)cnc3c12` [28HW]: less than 50 nM.
The same measure, in the same setting: the result for `C#CCNc1ncnc2sc3c(=O)n(-c4ccc(Br)cc4)cnc3c12` [95EQ] reads less than 50 nM; that for `Cc1ccc(-n2cnc3c(sc4ncnc(Nc5ccccc5)c43)c2=O)cc1F` [95GB], more than 1000 nM; that for `Cc1ccc(-n2cnc3c(sc4nccc(NC5CC5)c43)c2=O)c(F)c1` [131M], 50 to 150 nM.
On the same count and under the same terms, the result for `CN(C)c1cccc2sc3c(=O)n(-c4ccccc4F)cnc3c12` [103L] reads more than 1000 nM.
On to `O=c1c2sc3ncnc(Nc4ccccc4)c3c2ncn1-c1ccc2scnc2c1` [95GE], for which the half-inhibitory concentration (IC50) is more than 1000 nM.
For the compound `COCCNc1ccnc2sc3c(=O)n(-c4ccc(Br)cc4)cnc3c12` [28GO], the IC50 is less than 50 nM.
On the same count and under the same terms, the result for `COc1ccc(-n2cnc3c(sc4nccc(OC)c43)c2=O)c(C)c1` [28BL] reads more than 1000 nM; that for `Cc1ccc(-n2cnc3c(sc4nc(C)nc(N)c43)c2=O)cc1` [95ET], less than 50 nM.
On the same count and under the same terms, next, `Cc1ccc(-n2cnc3c(sc4nccc(NC5CCCCC5)c43)c2=O)cc1` [28DF]: more than 1000 nM; `COc1ccc(Nc2ncnc3sc4c(=O)n(-c5ccccc5)cnc4c23)cc1` [95GI]: 150 to 1000 nM; `Nc1c(Br)cnc2sc3c(=O)n(-c4ccc(Cl)cc4)cnc3c12` [compound 196]: less than 50 nM.
On the same count and under the same terms, next, `CN(C)c1ccnc2sc3c(=O)n(CCc4c(Cl)cccc4Cl)cnc3c12` [28EN]: 150 to 1000 nM; `C=CCNc1ccnc2sc3c(=O)n(-c4ccc(Br)cc4)cnc3c12` [28DR]: less than 50 nM; `CNc1nncc2sc3c(=O)n(-c4ccc(C)cc4)cnc3c12` [167H]: 150 to 1000 nM.
As for `Cc1ccc(-n2cnc3c(sc4nccc(NC5CCC5)c43)c2=O)cc1` [28DA], the IC50 lay in the range of 150 to 1000 nM.
Same read-out and setting: next, `Cc1ccc(-n2cnc3c(sc4nccc(N[C@@H](C)CO)c43)c2=O)cc1` [28DD]: 150 to 1000 nM; `CCc1ccc(-n2cnc3c(sc4nccc(NC5CC5)c43)c2=O)cc1` [28BT]: 50 to 150 nM; `COc1ccc(Nc2ncnc3sc4c(=O)n(C)cnc4c23)cc1` [95GN]: more than 1000 nM.
Still for that read-out and setting: next, `O=c1c2sc3nccc(NCCCO)c3c2ncn1-c1ccc2c(c1)CCO2` [28CJ]: less than 50 nM.
Same read-out and setting: the result for `Cc1ccc(-n2cnc3c(sc4nc(N5CCCC5)nc(N)c43)c2=O)cc1` [71C] reads more than 1000 nM; that for `CN(C)c1cccc2sc3c(=O)n(-c4cc(Cl)cc(Cl)c4)cnc3c12` [103K], more than 1000 nM; that for `COc1ccc(-n2cnc3c(sc4nccc(NCCO)c43)c2=O)cc1` [28DB], less than 50 nM.
As for `CNc1ncnc2sc3c(=O)n(-c4ccc(F)cc4)cnc3c12` [95DC], the IC50 was less than 50 nM.
Still for that read-out and setting: next, `O=c1c2sc3nccc(N4CCCCC4)c3c2ncn1-c1ccc(Cl)cc1` [28GH]: more than 1000 nM; `CCNc1ccnc2sc3c(=O)n(-c4cccc(F)c4)cnc3c12` [28CQ]: less than 50 nM.
Still for that read-out and setting: the result for `O=c1c2sc3ncnc(NC4CC4)c3c2ncn1-c1ccc2scnc2c1` [95BA] reads less than 50 nM.
`COc1ccc(-n2cnc3c(sc4nccc(NCCC(C)O)c43)c2=O)cc1` (centres unmarked) [28HP]: the IC50 is less than 50 nM.
On the same count and under the same terms, the result for `CNc1ccnc2sc3c(=O)n(-c4cccc(Br)c4)cnc3c12` [28CS] reads 50 to 150 nM; that for `CN(C)c1c(Cl)cnc2sc3c(=O)n(-c4ccc(Cl)cc4)cnc3c12` [compound 199], less than 50 nM; that for `O=c1c2sc3nccc(N4CCC[C@H]4CO)c3c2ncn1-c1ccc(Cl)cc1` [28GM], more than 1000 nM.
Turning to `CCOC(=O)c1cc2c(nc1C(F)(F)F)sc1c(=O)n(-c3ccc(C)cc3)cnc12` [144C], the half-maximal inhibitory concentration (IC50) was more than 1000 nM.
Turning to `COCCCNc1ccnc2sc3c(=O)n(-c4ccc(OS(=O)(=O)C(F)(F)F)cc4)cnc3c12` [28HX], the concentration for half-maximal inhibition (IC50) fell in the range of 150 to 1000 nM.
In the case of `Cc1ccc(-n2cnc3c(sc4cnnc(Cl)c43)c2=O)cc1` [compound 166], the concentration for half-maximal inhibition (IC50) was more than 1000 nM.
Take `C=C(C)CNc1ncnc2sc3c(=O)n(-c4ccc(C)cc4)cnc3c12` [95EY]: the IC50 was less than 50 nM.
The same measure, in the same setting: the result for `CCNc1ccnc2sc3c(=O)n(-c4cccc(Br)c4)cnc3c12` [28CR] reads 50 to 150 nM; that for `CCN(C)c1ccnc2sc3c(=O)n(-c4ccc(F)cc4)cnc3c12` [28ID], less than 50 nM; that for `CNc1ncnc2sc3c(=O)n(-c4ccc5scnc5c4)cnc3c12` [95BG], less than 50 nM.

Still in this assay, the particulars now being: against Quisqualate 1 μM (EC80), FLIPR calcium mobilization, read-out: mGluR1 IC50.
On to `CN(C)c1ccnc2sc3c(=O)n(-c4ccc5sccc5c4)cnc3c12` [7BM], for which the IC50 is 1.48 nM.

The same assay, now with this note: against Quisqualate 1 μM (EC80), class symbols, read-out: mGIuR 1 IC50.
As to `COc1ccc(NC(=O)CSc2nc3c(sc4nc(C)cc(C)c43)c(=O)n2-c2ccc(Cl)cc2)cc1` [P-6], the half-maximal inhibitory concentration (IC50) was in the range of 150 to 1000 nM.
On the same count and under the same terms, the result for `Cc1nc2c(sc3nccc(NC4CC4)c32)c(=O)n1-c1ccccc1` [113C] reads 150 to 1000 nM; that for `CN(C)c1cncc2sc3c(=O)n(-c4ccc(Cl)cc4)cnc3c12` [37E], less than 50 nM; that for `O=c1c2sc3nccc(NC4CCCCC4)c3c2ncn1-c1ccccc1` [28D], more than 1000 nM.
On the same count and under the same terms, the result for `CC(=O)N1CCN(c2ccnc3sc4c(=O)n(C5CCCCC5)cnc4c23)CC1` [compound 62] reads more than 1000 nM; that for `Cc1cc(N(C)C)c2c(n1)sc1c(=O)n(-c3ccc4ncsc4c3)cnc12` [7CO], 50 to 150 nM; that for `CC(C)Oc1ccc(-n2cnc3c(sc4nccc(N(C)C)c43)c2=O)cc1` [7AQ], more than 1000 nM.
Turning to `COc1ccc(-n2c(C(F)(F)F)nc3c(sc4nccc(N(C)C)c43)c2=O)cc1` [117B], the concentration for half-maximal inhibition (IC50) is 150 to 1000 nM.
Regarding `Cc1ccc(-n2cnc3c(sc4nccc(NC[C@H](C)O)c43)c2=O)cc1` [28BB], the half-maximal inhibitory concentration (IC50) is less than 50 nM.
As to `CCN(CC)C(=O)N1CCN(c2ccnc3sc4c(=O)n(C5CCCCC5)cnc4c23)CC1` [compound 64], the half-inhibitory concentration (IC50) is more than 1000 nM.
On the same count and under the same terms, the result for `O=c1c2sc3nccc(N4CCC(O)CC4)c3c2ncn1C1CCCCC1` [28AF] reads more than 1000 nM; that for `COc1ccc2nc(-n3cnc4c(sc5nccc(N(C)C)c54)c3=O)sc2c1` [7BP], more than 1000 nM; that for `Cc1nn(C)c(C)c1-n1cnc2c(sc3nccc(N(C)C)c32)c1=O` [15AC], more than 1000 nM.
The same measure, in the same setting: the result for `Cc1cc(-n2cnc3c(sc4nccc(N(C)C)c43)c2=O)no1` [15AE] reads 50 to 150 nM.
Still for that read-out and setting: the result for `CN(C)c1cncc2sc3c(=O)n(C4CCCCC4)cnc3c12` [37A] reads 150 to 1000 nM; that for `CN(C)c1cc[n+]([O-])c2sc3c(=O)n(-c4ccc(Cl)cc4)cnc3c12` [12B], 50 to 150 nM; that for `CCN(C)c1ncnc2sc3c(=O)n(-c4ccc(C(F)(F)F)cc4)cnc3c12` [95Y], less than 50 nM.
Take `CNc1ccnc2c1c1ncn(-c3ccc(C)cc3)c(=O)c1n2Cc1ccc(OC)cc1` [134I]: the IC50 is more than 1000 nM.
In the case of `Cc1ccc(Nn2cnc3c(sc4nccc(N(C)C)c43)c2=O)cc1` [60C], the concentration for half-maximal inhibition (IC50) is less than 50 nM.
With `Cc1ccc(-n2cnc3c(sc4nccc(NCCO)c43)c2=O)cc1` [28AV], the IC50 was less than 50 nM.
For `CN(C)c1ccnc2sc3c(=O)n(C4CCC4)cnc3c12` [15J], the concentration for half-maximal inhibition (IC50) is 50 to 150 nM.
Still for that read-out and setting: next, `COc1ccc(-n2cnc3c(sc4cncc(N(C)C)c43)c2=O)cc1` [37F]: 50 to 150 nM.
On to `Cc1ccc(-n2cnc3c(sc4nccc(N(C)N)c43)c2=O)cc1` [28AE], for which the half-inhibitory concentration (IC50) is less than 50 nM.
The same measure, in the same setting: next, `COc1cc(Br)c(-n2cnc3c(sc4nccc(N(C)C)c43)c2=O)c(Br)c1` [7BX]: more than 1000 nM; `CN(C)c1ncnc2sc3c(=O)n(-c4ccc(OC(F)F)cc4)cnc3c12` [95Q]: less than 50 nM.
For the compound `CN(C)c1ccnc2sc3c(=O)n(CC4CCCO4)cnc3c12` (centres unmarked) [15F], the IC50 was 150 to 1000 nM.
Regarding `CN(C)c1c(C#N)ncc2sc3c(=O)n(-c4ccc(Cl)cc4)cnc3c12` [compound 55], the IC50 fell in the range of 50 to 150 nM.
With `CCNc1ccnc2sc3c(=O)n(-c4ccc(C)cc4)c(C)nc3c12` [113H], the half-inhibitory concentration (IC50) was less than 50 nM.
The same measure, in the same setting: next, `CN(C)c1ccnc2sc3c(=O)n(-c4ccc5sccc5c4)cnc3c12` [7BM]: less than 50 nM.
Regarding `CN(C)c1ccnc2sc3c(=O)n(-c4ccsc4)cnc3c12` [15AA], the half-inhibitory concentration (IC50) was less than 50 nM.
With `CN(C)c1ccnc2sc3c(=O)n(N4CCCC4)cnc3c12` [60I], the IC50 lay in the range of 50 to 150 nM.
As for `CN(C)c1ccnc2sc3c(=O)n(NC(=O)C4CCC4)c(C4CCC4)nc3c12` [65D], the IC50 is more than 1000 nM.
As to `CCNc1ccnc2sc3c(=O)n(-c4ccccc4)c(C)nc3c12` [113F], the 50% inhibitory concentration (IC50) is less than 50 nM.
Consider `C=Cc1ccc(-n2cnc3c(sc4nccc(N(C)C)c43)c2=O)cc1` [compound 136], for which the concentration for half-maximal inhibition (IC50) was less than 50 nM.
